Test system: patients with advanced or metastatic breast cancer
Experiment: Adverse events (CTCAE Ver. 4.0), dose-limiting toxicities and dose reductions under everolimus
Format: in vivo, human
From the text: This was a prospective, observational PK study. Patients with advanced or metastatic breast cancer who received everolimus between November 2015 and November 2018 at Kobe City Medical Center General Hospital were enrolled in this study. The main inclusion criteria included the following: age ≥20 years; Eastern Cooperative Oncology Group (ECOG) performance status (PS): 0 or 1; and adequate bone marrow, liver, and renal function. The main exclusion criteria were interstitial pneumonia or pulmonary fibrosis, HBsAg positive, and psychiatric or psychological symptoms that made it difficult to participate in the study. Every participant provided written informed consent. This study was conducted in accordance with the Declaration of Helsinki and approved by the Institutional Review Board, under Approval Number zn151103.
Based on the physician’s decision, the patients were prescribed a starting dose of either 5 or 10 mg everolimus once daily. The everolimus dose was reduced when a patient experienced adverse events higher than grade 2. The first reduced dose was 5 mg once daily, followed by the second reduced dose of 2.5 mg once daily or 5 mg every alternate day. In addition, everolimus doses could be increased if adverse events improved to grade 1 or less, or deemed inefficacious. The adverse events were evaluated weekly for the first month and then every 1–4 weeks, according to the Common Terminology Criteria for Adverse Events Ver. 4.0.
Statistical differences in everolimus trough concentrations, doses and body weights between patient cohorts were assessed using the Mann–Whitney test. Progression-free survival (PFS) was assessed using the Kaplan-Meier method and the log-rank test. All statistical analyses were performed using GraphPad Prism version 7.03 (San Diego, CA). p < 0.05 was considered statistically significant.

[1] = All patients (n = 18), Grade All
[2] = Initial dose: 5 mg/day (n = 6), Grade 1
[3] = Initial dose: 5 mg/day (n = 6), Grade 2

SMILES: CO[C@H]1C[C@@H]2CC[C@@H](C)[C@@](O)(O2)C(=O)C(=O)N2CCCC[C@H]2C(=O)O[C@H]([C@H](C)C[C@@H]2CC[C@@H](OCCO)[C@H](OC)C2)CC(=O)[C@H](C)/C=C(\C)[C@@H](O)[C@@H](OC)C(=O)[C@H](C)C[C@H](C)/C=C/C=C/C=C/1C [everolimus]
- Adverse event, n: Diarrhea (All patients (n = 18), Grade 1): 1
- Adverse event, n: Dysgeusia (All patients (n = 18), Grade 1): 4
- Adverse event, n: Epistaxis (All patients (n = 18), Grade 1): 6
- Adverse event, n: High cholesterol (All patients (n = 18), Grade 1): 9
- Adverse event, n: Hyperglycemia (All patients (n = 18), Grade 1): 4
- Adverse event, n: Hypertriglyceridemia (All patients (n = 18), Grade 1): 8
- Adverse event, n: Hypokalemia (All patients (n = 18), Grade 1): 6
- Adverse event, n: Interstitial lung disease (All patients (n = 18), Grade 1): 3
- Adverse event, n: Malaise (All patients (n = 18), Grade 1): 6
- Adverse event, n: Mucositis oral (All patients (n = 18), Grade 1): 7
- Adverse event, n: Neutrophil count decreased (All patients (n = 18), Grade 1): 2
- Adverse event, n: Platelet decrease (All patients (n = 18), Grade 1): 9
- Adverse event, n: Rash (All patients (n = 18), Grade 1): 11
- Adverse event, n: Diarrhea (All patients (n = 18), Grade 2): 4
- Adverse event, n: Dysgeusia (All patients (n = 18), Grade 2): 1
- Adverse event, n: Epistaxis (All patients (n = 18), Grade 2): 0
- Adverse event, n: High cholesterol (All patients (n = 18), Grade 2): 2
- Adverse event, n: Hyperglycemia (All patients (n = 18), Grade 2): 1
- Adverse event, n: Hypertriglyceridemia (All patients (n = 18), Grade 2): 4
- Adverse event, n: Hypokalemia (All patients (n = 18), Grade 2): 1
- Adverse event, n: Interstitial lung disease (All patients (n = 18), Grade 2): 2
- Adverse event, n: Malaise (All patients (n = 18), Grade 2): 1
- Adverse event, n: Mucositis oral (All patients (n = 18), Grade 2): 10
- Adverse event, n: Neutrophil count decreased (All patients (n = 18), Grade 2): 3
- Adverse event, n: Platelet decrease (All patients (n = 18), Grade 2): 0
- Adverse event, n: Rash (All patients (n = 18), Grade 2): 3
- Adverse event, n: Diarrhea (All patients (n = 18), Grade 3): 0
- Adverse event, n: Dysgeusia (All patients (n = 18), Grade 3): 0
- Adverse event, n: Epistaxis (All patients (n = 18), Grade 3): 0
- Adverse event, n: High cholesterol (All patients (n = 18), Grade 3): 0
- Adverse event, n: Hyperglycemia (All patients (n = 18), Grade 3): 0
- Adverse event, n: Hypertriglyceridemia (All patients (n = 18), Grade 3): 0
- Adverse event, n: Hypokalemia (All patients (n = 18), Grade 3): 1
- Adverse event, n: Interstitial lung disease (All patients (n = 18), Grade 3): 0
- Adverse event, n: Malaise (All patients (n = 18), Grade 3): 0
- Adverse event, n: Mucositis oral (All patients (n = 18), Grade 3): 0
- Adverse event, n: Neutrophil count decreased (All patients (n = 18), Grade 3): 1
- Adverse event, n: Platelet decrease (All patients (n = 18), Grade 3): 0
- Adverse event, n: Rash (All patients (n = 18), Grade 3): 0
- Adverse event, n: Diarrhea (All patients (n = 18), Grade 4): 0
- Adverse event, n: Dysgeusia (All patients (n = 18), Grade 4): 0
- Adverse event, n: Epistaxis (All patients (n = 18), Grade 4): 0
- Adverse event, n: High cholesterol (All patients (n = 18), Grade 4): 0
- Adverse event, n: Hyperglycemia (All patients (n = 18), Grade 4): 0
- Adverse event, n: Hypertriglyceridemia (All patients (n = 18), Grade 4): 0
- Adverse event, n: Hypokalemia (All patients (n = 18), Grade 4): 1
- Adverse event, n: Interstitial lung disease (All patients (n = 18), Grade 4): 0
- Adverse event, n: Malaise (All patients (n = 18), Grade 4): 0
- Adverse event, n: Mucositis oral (All patients (n = 18), Grade 4): 0
- Adverse event, n: Neutrophil count decreased (All patients (n = 18), Grade 4): 0
- Adverse event, n: Platelet decrease (All patients (n = 18), Grade 4): 0
- Adverse event, n: Rash (All patients (n = 18), Grade 4): 0
- Adverse event, n: Diarrhea [1]: 5
- Adverse event, n: Dysgeusia [1]: 5
- Adverse event, n: Epistaxis [1]: 6
- Adverse event, n: High cholesterol [1]: 11
- Adverse event, n: Hyperglycemia [1]: 5
- Adverse event, n: Hypertriglyceridemia [1]: 12
- Adverse event, n: Hypokalemia [1]: 9
- Adverse event, n: Interstitial lung disease [1]: 5
- Adverse event, n: Malaise [1]: 7
- Adverse event, n: Mucositis oral [1]: 17
- Adverse event, n: Neutrophil count decreased [1]: 6
- Adverse event, n: Platelet decrease [1]: 9
- Adverse event, n: Rash [1]: 14
- trough concentrations at DLTs compared with trough concentrations in the absence of DLTs (DLT (n = 13) vs no DLT (n = 18), Mann-Whitney test, p = 0.0058): significantly higher
- number of patients, DLTs (−) (Dose 5 mg, BW 36.1–40.0 kg): 1
- number of patients, DLTs (−) (Dose 5 mg, BW 40.1–45.0 kg): 1
- number of patients, DLTs (+) (Dose 5 mg, BW 45.1–50.0 kg): 1
- number of patients, DLTs (+) (Dose 5 mg, BW 50.1–55.0 kg): 1
- number of patients, DLTs (−) (Dose 5 mg, BW 50.1–55.0 kg): 3
- number of patients, DLTs (+) (Dose 5 mg, BW 55.1–60.0 kg): 3
- number of patients, DLTs (−) (Dose 5 mg, BW 55.1–60.0 kg): 2
- number of patients, DLTs (+) (Dose 10 mg, BW 36.1–40.0 kg): 1
- number of patients, DLTs (+) (Dose 10 mg, BW 40.1–45.0 kg): 1
- number of patients, DLTs (−) (Dose 10 mg, BW 40.1–45.0 kg): 1
- number of patients, DLTs (+) (Dose 10 mg, BW 45.1–50.0 kg): 2
- number of patients, DLTs (−) (Dose 10 mg, BW 45.1–50.0 kg): 1
- number of patients, DLTs (+) (Dose 10 mg, BW 50.1–55.0 kg): 2
- number of patients, DLTs (+) (Dose 10 mg, BW 55.1–60.0 kg): 2
- number of patients, DLTs (−) (Dose 10 mg, BW 60.1–65.0 kg): 1
- number of patients, DLTs (−) (Dose 10 mg, BW 66.1–70.0 kg): 1
- Adverse event, n: Diarrhea [2]: 0
- Adverse event, n: Dysgeusia [2]: 1
- Adverse event, n: Epistaxis [2]: 2
- Adverse event, n: High cholesterol [2]: 4
- Adverse event, n: Hyperglycemia [2]: 2
- Adverse event, n: Hypertriglyceridemia [2]: 2
- Adverse event, n: Hypokalemia [2]: 2
- Adverse event, n: Interstitial lung disease [2]: 0
- Adverse event, n: Malaise [2]: 1
- Adverse event, n: Mucositis oral [2]: 2
- Adverse event, n: Neutrophil count decreased [2]: 0
- Adverse event, n: Platelet decrease [2]: 2
- Adverse event, n: Rash [2]: 3
- Adverse event, n: Diarrhea [3]: 1
- Adverse event, n: Dysgeusia [3]: 1
- Adverse event, n: Epistaxis [3]: 0
- Adverse event, n: High cholesterol [3]: 0
- Adverse event, n: Hyperglycemia [3]: 0
- Adverse event, n: Hypertriglyceridemia [3]: 1
- Adverse event, n: Hypokalemia [3]: 0
- Adverse event, n: Interstitial lung disease [3]: 1
- Adverse event, n: Malaise [3]: 1
- Adverse event, n: Mucositis oral [3]: 4
- Adverse event, n: Neutrophil count decreased [3]: 0
- Adverse event, n: Platelet decrease [3]: 0
- Adverse event, n: Rash [3]: 1

— article PMC9520775, “Everolimus pharmacokinetics and exposure-response relationship in Japanese patients with advanced breast cancer” (Frontiers in Pharmacology, 2022)
